Reference: PubChem BioAssay AID180 (DTP/NCI, 2004)
“And” between values parts separate entries of the source, which are not always exact repeats. Equal values may be shown once.

Tested on: BDF1 mice, Adenocarcinoma 755 s.c., tumor weight T/C
Assay: NCI In Vivo Anticancer Drug Screen. Data for tumor model Adenocarcinoma 755 (subcutaneous) in B6D2F1 (BDF1) mice
Details: endpoint: mean tumor weight, higher = larger tumour
Method in brief: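 Values express treated (T) relative to vehicle-dosed control (C) animals, based on survival or tumour size measured after compound treatment of mice bearing a transplanted tumour.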

[1] = dose: 25.0 mg/kg/injection, schedule: Q01DX011 (ip), vehicle: methylcellulose (MC)
[2] = dose: 15.0 mg/kg/injection, schedule: Q01DX011 (sc), vehicle: steriod suspending solution
[3] = dose: 30.0 mg/kg/injection, schedule: Q01DX011 (sc), vehicle: steriod suspending solution
[4] = dose: 60.0 mg/kg/injection, schedule: Q01DX011 (sc), vehicle: steriod suspending solution
[5] = dose: 30.0 mg/kg/injection, schedule: Q01DX011 (ip), vehicle: carboxymethylcellulose (CMC)
[6] = dose: 120.0 mg/kg/injection, schedule: Q01DX011 (ip), vehicle: carboxymethylcellulose (CMC)
[7] = dose: 240.0 mg/kg/injection, schedule: Q01DX011 (ip), vehicle: carboxymethylcellulose (CMC)

N#CSc1ncnc2nc[nH]c12
T/C (dose: 0.4 mg/kg/injection, schedule: Q01DX011 (ip), vehicle: water): 67 % of control
T/C (dose: 1.0 mg/kg/injection, schedule: Q01DX011 (ip), vehicle: alkali diluted with saline): 20 % of control and 33 % of control
T/C (dose: 1.0 mg/kg/injection, schedule: Q01DX011 (ip), vehicle: saline): 10 % of control
T/C (dose: 1.3 mg/kg/injection, schedule: Q01DX011 (ip), vehicle: water): 8 % of control
T/C (dose: 1.75 mg/kg/injection, schedule: Q01DX011 (ip), vehicle: water): 4 % of control
T/C (dose: 2.0 mg/kg/injection, schedule: Q01DX011 (ip), vehicle: alkali diluted with saline): 1 % of control and 11 % of control
T/C (dose: 2.0 mg/kg/injection, schedule: Q01DX011 (ip), vehicle: saline): 1 % of control
T/C (dose: 4.0 mg/kg/injection, schedule: Q01DX011 (ip), vehicle: alkali diluted with saline): 2 % of control
T/C (dose: 4.0 mg/kg/injection, schedule: Q01DX011 (ip), vehicle: saline): 1 % of control
T/C (dose: 7.0 mg/kg/injection, schedule: Q01DX011 (ip), vehicle: water): 1 % of control
T/C (dose: 8.0 mg/kg/injection, schedule: Q01DX011 (ip), vehicle: saline): 1 % of control

CC(C)CSc1nc(N)nc2nc[nH]c12
T/C (dose: 2.0 mg/kg/injection, schedule: Q01DX011 (ip), vehicle: methylcellulose (MC)): 46 % of control
T/C (dose: 4.0 mg/kg/injection, schedule: Q01DX011 (ip), vehicle: methylcellulose (MC)): 30 % of control
T/C (dose: 8.0 mg/kg/injection, schedule: Q01DX011 (ip), vehicle: methylcellulose (MC)): 10 % of control
T/C (dose: 16.0 mg/kg/injection, schedule: Q01DX011 (ip), vehicle: methylcellulose (MC)): 6 % of control
T/C (dose: 32.0 mg/kg/injection, schedule: Q01DX011 (ip), vehicle: methylcellulose (MC)): 5 % of control
T/C (dose: 64.0 mg/kg/injection, schedule: Q01DX011 (ip), vehicle: methylcellulose (MC)): 4 % of control

O=c1[nH]cc(F)c(=O)[nH]1
T/C (dose: 3.38 mg/kg/injection, schedule: Q01DX011 (ip), vehicle: carboxymethylcellulose (CMC)): 106 % of control
T/C (dose: 3.87 mg/kg/injection, schedule: Q01DX011 (ip), vehicle: carboxymethylcellulose (CMC)): 61 % of control
T/C (dose: 4.13 mg/kg/injection, schedule: Q01DX011 (ip), vehicle: carboxymethylcellulose (CMC)): 48 % of control and 71 % of control
T/C (dose: 6.25 mg/kg/injection, schedule: Q01DX011 (ip), vehicle: methylcellulose (MC)): 91 % of control
T/C (dose: 6.75 mg/kg/injection, schedule: Q01DX011 (ip), vehicle: carboxymethylcellulose (CMC)): 75 % of control
T/C (dose: 7.75 mg/kg/injection, schedule: Q01DX011 (ip), vehicle: carboxymethylcellulose (CMC)): 103 % of control and 85 % of control
T/C (dose: 8.27 mg/kg/injection, schedule: Q01DX011 (ip), vehicle: carboxymethylcellulose (CMC)): 151 % of control and 159 % of control
T/C (dose: 10.8 mg/kg/injection, schedule: Q01DX011 (ip), vehicle: carboxymethylcellulose (CMC)): 156 % of control
T/C (dose: 12.5 mg/kg/injection, schedule: Q01DX011 (ip), vehicle: methylcellulose (MC)): 44 % of control
T/C (dose: 13.24 mg/kg/injection, schedule: Q01DX011 (ip), vehicle: carboxymethylcellulose (CMC)): 76 % of control
T/C (dose: 16.55 mg/kg/injection, schedule: Q01DX011 (ip), vehicle: carboxymethylcellulose (CMC)): 100 % of control and 224 % of control and 75 % of control
T/C (dose: 18.0 mg/kg/injection, schedule: Q01DX011 (ip), vehicle: carboxymethylcellulose (CMC)): 108 % of control
T/C (dose: 20.0 mg/kg/injection, schedule: Q01DX011 (ip), vehicle: saline): 15 % of control
T/C (dose: 22.06 mg/kg/injection, schedule: Q01DX011 (ip), vehicle: carboxymethylcellulose (CMC)): 59 % of control
T/C [1]: 13 % of control
T/C (dose: 25.0 mg/kg/injection, schedule: Q01DX011 (ip), vehicle: saline): 34 % of control
T/C (dose: 27.0 mg/kg/injection, schedule: Q01DX011 (ip), vehicle: carboxymethylcellulose (CMC)): 18 % of control and 27 % of control
T/C (dose: 30.0 mg/kg/injection, schedule: Q01DX011 (ip), vehicle: saline): 11 % of control
T/C (dose: 33.1 mg/kg/injection, schedule: Q01DX011 (ip), vehicle: carboxymethylcellulose (CMC)): 27 % of control

c1ccc(N2CCSCC2)cc1
T/C (dose: 40.5 mg/kg/injection, schedule: Q01DX011 (ip), vehicle: methylcellulose (MC)): 16 % of control and 28 % of control

CCC(C)Sc1nc(N)nc2c1ncn2C1OC(CO)C(O)C1O (stereo unspecified)
T/C (dose: 200.0 mg/kg/injection, schedule: Q01DX011 (ip), vehicle: carboxymethylcellulose (CMC)): 2 % of control
T/C (dose: 300.0 mg/kg/injection, schedule: Q01DX011 (ip), vehicle: carboxymethylcellulose (CMC)): 2 % of control

CC/C(=C(\CC)c1ccc(OC)cc1)c1ccc(O)cc1
T/C [2]: 68 % of control
T/C [3]: 69 % of control
T/C [4]: 40 % of control
T/C (dose: 120.0 mg/kg/injection, schedule: Q01DX011 (sc), vehicle: other): 37 % of control and 42 % of control
T/C (dose: 120.0 mg/kg/injection, schedule: Q01DX011 (sc), vehicle: steriod suspending solution): 26 % of control

CC(=O)OCC(=O)[C@@]1(O)CC[C@H]2[C@@H]3CCC4=CC(=O)C=C[C@]4(C)[C@H]3C(=O)C[C@@]21C
T/C (dose: 0.9 mg/kg/injection, schedule: Q01DX011 (sc), vehicle: steriod suspending solution): 68 % of control
T/C (dose: 1.7 mg/kg/injection, schedule: Q01DX011 (sc), vehicle: steriod suspending solution): 72 % of control
T/C (dose: 3.5 mg/kg/injection, schedule: Q01DX011 (sc), vehicle: steriod suspending solution): 76 % of control
T/C (dose: 3.7 mg/kg/injection, schedule: Q01DX011 (sc), vehicle: steriod suspending solution): 64 % of control
T/C (dose: 7.0 mg/kg/injection, schedule: Q01DX011 (sc), vehicle: steriod suspending solution): 106 % of control
T/C (dose: 7.1 mg/kg/injection, schedule: Q01DX011 (sc), vehicle: steriod suspending solution): 39 % of control
T/C (dose: 7.5 mg/kg/injection, schedule: Q01DX011 (sc), vehicle: steriod suspending solution): 50 % of control
T/C (dose: 14.0 mg/kg/injection, schedule: Q01DX011 (sc), vehicle: steriod suspending solution): 52 % of control
T/C (dose: 14.3 mg/kg/injection, schedule: Q01DX011 (sc), vehicle: steriod suspending solution): 44 % of control
T/C [2]: 27 % of control and 33 % of control
T/C (dose: 28.7 mg/kg/injection, schedule: Q01DX011 (sc), vehicle: steriod suspending solution): 19 % of control and 26 % of control and 27 % of control
T/C [3]: 13 % of control and 16 % of control
T/C (dose: 57.5 mg/kg/injection, schedule: Q01DX011 (sc), vehicle: steriod suspending solution): 3 % of control and 11 % of control and 17 % of control
T/C [4]: 12 % of control
T/C (dose: 115.0 mg/kg/injection, schedule: Q01DX011 (sc), vehicle: steriod suspending solution): 5 % of control

OB(O)O
T/C (dose: 500.0 mg/kg/injection, schedule: Q#A X022 (oral), vehicle: water): 39 % of control and 45 % of control
T/C (dose: 750.0 mg/kg/injection, schedule: Q#A X022 (oral), vehicle: water): 16 % of control
T/C (dose: 1000.0 mg/kg/injection, schedule: Q#A X022 (oral), vehicle: water): 9 % of control

CC(=O)OCC1OC(n2cnc3c(N)ncnc32)C(OC(C)=O)C1OC(C)=O (stereo unspecified)
T/C [5]: 150 % of control
T/C [6]: 113 % of control
T/C [7]: 103 % of control

CCCCn1cnc2c([N+](C)(C)C)ncnc21
T/C (dose: 3.75 mg/kg/injection, schedule: Q01DX011 (ip), vehicle: carboxymethylcellulose (CMC)): 66 % of control
T/C (dose: 15.0 mg/kg/injection, schedule: Q01DX011 (ip), vehicle: carboxymethylcellulose (CMC)): 33 % of control and 38 % of control

CN(C)S(=O)(=O)c1nc(Cl)c2[nH]cnc2n1
T/C (dose: 25.0 mg/kg/injection, schedule: Q01DX011 (ip), vehicle: carboxymethylcellulose (CMC)): 98 % of control
T/C (dose: 75.0 mg/kg/injection, schedule: Q01DX011 (ip), vehicle: carboxymethylcellulose (CMC)): 89 % of control
T/C (dose: 225.0 mg/kg/injection, schedule: Q01DX011 (ip), vehicle: carboxymethylcellulose (CMC)): 58 % of control

Brc1ccc(CSc2ncnc3nc[nH]c23)cc1
T/C (dose: 43.75 mg/kg/injection, schedule: Q01DX011 (ip), vehicle: methylcellulose (MC)): 70 % of control
T/C (dose: 87.5 mg/kg/injection, schedule: Q01DX011 (ip), vehicle: methylcellulose (MC)): 28 % of control
T/C (dose: 175.0 mg/kg/injection, schedule: Q01DX011 (ip), vehicle: methylcellulose (MC)): 10 % of control
T/C (dose: 350.0 mg/kg/injection, schedule: Q01DX011 (ip), vehicle: methylcellulose (MC)): 1 % of control

Cn1c(=N)nc(SCc2ccccc2Cl)c2[nH]cnc21
T/C [5]: 88 % of control
T/C (dose: 60.0 mg/kg/injection, schedule: Q01DX011 (ip), vehicle: carboxymethylcellulose (CMC)): 118 % of control
T/C [6]: 88 % of control
T/C [7]: 16 % of control

Brc1ncnc2c1ncn2C1CCCS1 (stereo unspecified)
T/C [1]: 75 % of control
T/C (dose: 75.0 mg/kg/injection, schedule: Q01DX011 (ip), vehicle: methylcellulose (MC)): 66 % of control
T/C (dose: 225.0 mg/kg/injection, schedule: Q01DX011 (ip), vehicle: methylcellulose (MC)): 86 % of control
